Publication PMC3330251 (Journal of Medicinal Chemistry, 2012)

Assays:
[1] = human liver microsomes; cited from earlier work
[2] = cited from earlier work
[3] = test system: potassium ion channel coded by hERG; details: compound concentration as high as 300 µM; cited from earlier work
[4] = test system: L. donovani (axenic amastigote stage, MHOM-ET-67/L82); details: relative to 1d
[5] = test system: P. falciparum (erythrocytic stage, K1 strain); details: relative to the standard (chloroquine)

In the case of `CCc1ccc(C(=O)NC(=O)c2ccccc2O)cc1` [Compound 1a, N-(4-Ethylbenzoyl)-2-hydroxybenzamide], the “intrinsic clearance / metabolism rate in HLM” value [1] is listed as 282 µL/min/mg proteins, the “protein binding in human plasma” value [2] is listed as 99.9% and the hERG inhibition [3] is listed as “not inhibited”.

With `O=C(NC(=O)c1ccccc1O)c1ccc(C(F)(F)F)cc1` [Compound 1g, 2-Hydroxy-N-(4-(trifluoromethyl)benzoyl)benzamide] the “times less potent than 1d against L. donovani” value [4] was 4 times.

In the case of `O=C(NC(=O)c1ccccc1O)c1ccc2ccccc2c1` [Compound 1t, N-(2-Hydroxybenzoyl)-2-naphthamide], the “fold less active than the standard against malaria parasites” value [5] is reported as 2 fold.

In the case of `OC(Cn1cncn1)(Cn1cncn1)c1ccc(F)cc1F` [fluconazole, reference compound], the “protein binding in human plasma” value [2] is given as 23.7%.
